Laboratory results as given in PMC12564265, “Navigating the Deep Eutectic Solvent Landscape: Experimental and Machine Learning Solubility Explorations of Syringic, p-Coumaric, and Caffeic Acids” (International Journal of Molecular Sciences, 2025).

Tests used:
[1] = Shake-flask solubility with spectrophotometric measurement in neat deep eutectic solvents; type: physicochemical
Procedure: (§1) In order to determine the solubility of the three studied phenolic acids in deep eutectic solvents, a very well-established shake-flask method coupled with spectrophotometric measurements was utilized. The initial procedure involved the preparation of various DESs, which was conducted by mixing their HBA and HBD counterparts in a glass vessel and heating the composition until the formation of a transparent, uniform liquid. […] For additional measurements, the DESs were mixed with water in varying proportions, creating aqueous DES systems. Saturated solutions of CAF, SYR, and COU were obtained by adding excess amounts of these compounds to test tubes containing either a neat deep eutectic solvent or its aqueous solution. Such samples were placed in the Orbital Shaker Incubator ES-20/60 from Biosan (Riga, Latvia) and heated for 24 h at 25 °C, 30 °C, 35 °C, and 40 °C (±0.1 °C) with simultaneous mixing at 60 rpm. Before measurements, the samples were filtered using a PTFE syringe filter from Qpore (Dallas, TX, USA) with a 0.22 μm pore size. In order to avoid possible precipitation of the saturated solutions at decreased temperatures, the test tubes, syringes, pipette tips, and filters were kept at a temperature identical to that of the samples. The spectrophotometric measurements required the preparation of calibration curves for the three APIs. This involved the preparation of a stock solution of each compound in methanol, which was later successfully diluted, and the obtained solutions of varying concentrations were measured using an A360 spectrophotometer from AOE Instruments (Shanghai, China). The wavelength range was set to 200-500 nm, and the resolution was 1 nm. The analytical wavelengths were determined to be 324 nm for caffeic acid, 273 nm for syringic acid, and 308 nm for p-coumaric acid. The final regression equations, obtained after averaging three distinct sets of measurements, are collected in Table 2 together with determination coefficients and limits of detection (LOD) and quantification (LOQ) for the calibration curves. The measurements of the samples were conducted with the same spectrophotometer and identical settings. Methanol was used for the dilution of the samples so that they could remain within the linearity range of the method. Complete spectra of the samples were recorded, but for the solubility determination, the absorbance values at a specific analytical wavelength were considered. These values were combined with the corresponding regression equations of the calibration curves and served for the calculation of the concentration of the three phenolic acids in the studied samples. The densities of such samples were also measured, and for this task 1 mL of each sample was weighed to a precision of 0.1 mg using an AS 110 R2.PLUS analytical balance from […] (Radom, Poland). The obtained densities enabled the calculation of mole fractions of CAF, SYR, and COU dissolved in the studied DESs. For each considered system, three distinct measurements were conducted, and the results were averaged.

[2] = Shake-flask solubility with spectrophotometric measurement in aqueous DES mixtures; type: physicochemical; details: Bet – TEG 1:2 + water
Procedure: as §1

Question: Which results are given for `COc1cc(C(=O)O)cc(OC)c1O` [syringic acid, 4-hydroxy-3,5-dimethoxybenzoic acid]?
Answer: Mole fraction solubility ([1]; neat DES Bet - DEG, HBA:HBD molar ratio 1:1, 25 °C): 0.0235±0.0003 mole fraction; Mole fraction solubility ([1]; neat DES Bet - DEG, HBA:HBD molar ratio 1:2, 25 °C): 0.0311±0.0002 mole fraction; Mole fraction solubility ([1]; neat DES Bet - DEG, HBA:HBD molar ratio 1:4, 25 °C): 0.0283±0.0003 mole fraction; Mole fraction solubility ([1]; neat DES Bet - ETG, HBA:HBD molar ratio 1:1, 25 °C): 0.0132±0.0001 mole fraction; Mole fraction solubility ([1]; neat DES Bet - ETG, HBA:HBD molar ratio 1:2, 25 °C): 0.0274±0.0002 mole fraction; Mole fraction solubility ([1]; neat DES Bet - ETG, HBA:HBD molar ratio 1:4, 25 °C): 0.0205±0.0002 mole fraction; Mole fraction solubility ([1]; neat DES Bet - GLY, HBA:HBD molar ratio 1:1, 25 °C): 0.0203±0.0002 mole fraction; Mole fraction solubility ([1]; neat DES Bet - GLY, HBA:HBD molar ratio 1:2, 25 °C): 0.0358±0.0003 mole fraction; Mole fraction solubility ([1]; neat DES Bet - GLY, HBA:HBD molar ratio 1:4, 25 °C): 0.0300±0.0002 mole fraction; Mole fraction solubility ([1]; neat DES Bet - TEG, HBA:HBD molar ratio 1:1, 25 °C): 0.0317±0.0003 mole fraction; Mole fraction solubility ([1]; neat DES Bet - TEG, HBA:HBD molar ratio 1:2, 25 °C): 0.0474 mole fraction; Mole fraction solubility ([1]; neat DES Bet - TEG, HBA:HBD molar ratio 1:2, 25 °C, listed as syryngic acid): 0.0474±0.0003 mole fraction; Mole fraction solubility ([1]; neat DES Bet - TEG, HBA:HBD molar ratio 1:4, 25 °C): 0.0388±0.0003 mole fraction; Mole fraction solubility ([1]; neat DES ChCl - DEG, HBA:HBD molar ratio 1:1, 25 °C): 0.0230±0.0004 mole fraction; Mole fraction solubility ([1]; neat DES ChCl - DEG, HBA:HBD molar ratio 1:2, 25 °C): 0.0465±0.0004 mole fraction; Mole fraction solubility ([1]; neat DES ChCl - ETG, HBA:HBD molar ratio 1:1, 25 °C): 0.0186±0.0002 mole fraction; Mole fraction solubility ([1]; neat DES ChCl - ETG, HBA:HBD molar ratio 1:2, 25 °C): 0.0304±0.0002 mole fraction; Mole fraction solubility ([1]; neat DES ChCl - ETG, HBA:HBD molar ratio 1:4, 25 °C): 0.0244±0.0002 mole fraction; Mole fraction solubility ([1]; neat DES ChCl - TEG, HBA:HBD molar ratio 1:2, 25 °C): 0.0515 mole fraction; Mole fraction solubility ([2]; x*DES 0.1, 25°C): 0.0042±0.0001 mole fraction; Mole fraction solubility ([2]; x*DES 0.1, 30°C): 0.0046±0.0001 mole fraction; Mole fraction solubility ([2]; x*DES 0.1, 35°C): 0.0057±0.0001 mole fraction; Mole fraction solubility ([2]; x*DES 0.1, 40°C): 0.0067±0.0001 mole fraction; Mole fraction solubility ([2]; x*DES 0.2, 25°C): 0.0093±0.0001 mole fraction; Mole fraction solubility ([2]; x*DES 0.2, 30°C): 0.0105±0.0001 mole fraction; Mole fraction solubility ([2]; x*DES 0.2, 35°C): 0.0127±0.0001 mole fraction; Mole fraction solubility ([2]; x*DES 0.2, 40°C): 0.0148±0.0002 mole fraction; Mole fraction solubility ([2]; x*DES 0.3, 25°C): 0.0153±0.0001 mole fraction; Mole fraction solubility ([2]; x*DES 0.3, 30°C): 0.0173±0.0001 mole fraction; Mole fraction solubility ([2]; x*DES 0.3, 35°C): 0.0207±0.0002 mole fraction; Mole fraction solubility ([2]; x*DES 0.3, 40°C): 0.0239±0.0002 mole fraction; Mole fraction solubility ([2]; x*DES 0.4, 25°C): 0.0214±0.0002 mole fraction; Mole fraction solubility ([2]; x*DES 0.4, 30°C): 0.0247±0.0001 mole fraction; Mole fraction solubility ([2]; x*DES 0.4, 35°C): 0.0290±0.0002 mole fraction; Mole fraction solubility ([2]; x*DES 0.4, 40°C): 0.0341±0.0003 mole fraction; Mole fraction solubility ([2]; x*DES 0.5, 25°C): 0.0284±0.0002 mole fraction; Mole fraction solubility ([2]; x*DES 0.5, 30°C): 0.0318±0.0002 mole fraction; Mole fraction solubility ([2]; x*DES 0.5, 35°C): 0.0386±0.0002 mole fraction; Mole fraction solubility ([2]; x*DES 0.5, 40°C): 0.0457±0.0003 mole fraction; Mole fraction solubility ([2]; x*DES 0.6, 25°C): 0.0351±0.0003 mole fraction; Mole fraction solubility ([2]; x*DES 0.6, 30°C): 0.0396±0.0003 mole fraction; Mole fraction solubility ([2]; x*DES 0.6, 35°C): 0.0475±0.0009 mole fraction; Mole fraction solubility ([2]; x*DES 0.6, 40°C): 0.0568±0.0006 mole fraction; Mole fraction solubility ([2]; x*DES 0.7, 25°C): 0.0425±0.0003 mole fraction; Mole fraction solubility ([2]; x*DES 0.7, 30°C): 0.0483±0.0005 mole fraction; Mole fraction solubility ([2]; x*DES 0.7, 35°C): 0.0579±0.0010 mole fraction; Mole fraction solubility ([2]; x*DES 0.7, 40°C): 0.0702±0.0004 mole fraction; Mole fraction solubility ([2]; x*DES 0.8, 30°C): 0.0558±0.0006 mole fraction; Mole fraction solubility ([2]; x*DES 0.8, 35°C): 0.0673±0.0015 mole fraction; Mole fraction solubility ([2]; x*DES 0.8, 40°C): 0.0790±0.0009 mole fraction; Mole fraction solubility ([2]; x*DES 0.9, 25°C): 0.0488 mole fraction; Mole fraction solubility ([2]; x*DES 0.9, 25°C, listed as syryngic acid): 0.0488±0.0004 mole fraction
